The source made the active and inactive calls. No cut-off for these calls is given here. Residues, ends and D or L forms follow the SMILES beside them. *: point of attachment. Acetyl(thymin-1-yl) = Cc1cn(CC(=O)*)c(=O)[nH]c1=O
Experiments:
[1] = Binding affinity to dA12 DNA (unknown origin) at 24 nM by circular dichroism analysis
[2] = Binding affinity to […] RNA (unknown origin) at 12.8 uM assessed as melting temperature by UV analysis
[3] = Binding affinity to […] RNA (unknown origin) by surface plasmon resonance assay
[4] = Binding affinity to dT12 DNA (unknown origin) at 24 nM by circular dichroism analysis
[5] = Binding affinity to […] RNA (unknown origin) at 2:1 compound to RNA ratio by circular dichroism analysis
[6] = Binding affinity to […] RNA (unknown origin) at 1.5:1 compound to RNA ratio by circular dichroism analysis
[7] = Half life in 94% human serum at 14 uM; assay type: ADME
[8] = Binding affinity to poly rA RNA (unknown origin) at 24 nM by circular dichroism analysis
[9] = Binding affinity to dA12 DNA (unknown origin) at 10 uM assessed as melting temperature by UV analysis
[10] = Binding affinity to poly rA RNA (unknown origin) at 2:1 compound to RNA ratio by circular dichroism analysis
[11] = Binding affinity to dA12 DNA (unknown origin) at 2.5:1 compound to DNA ratio by circular dichroism analysis
[12] = Binding affinity to poly rA RNA (unknown origin) by surface plasmon resonance assay
[13] = Binding affinity to poly rA RNA (unknown origin) at 2:1 compound to RNA ratio assessed as melting temperature by circular dichroism analysis

Activity [1]: Active | Tm [2]: 27 °C | Activity [3]: Active | Activity [4]: Active | Activity [5]: Active | Activity [6]: Active | half-life at 14 µM [7]: 45 min | Activity [8]: Active | Tm [9]: 25 °C | Activity [10]: Active | Activity [11]: Active | Activity [12]: Active | Tm [13]: 35 °C
SMILES: Cc1cn(CC(=O)NCCCC[C@H](NC(=O)[C@H](CCCCN)NC(=O)[C@H](CCCCNC(=O)Cn2cc(C)c(=O)[nH]c2=O)NC(=O)[C@H](CCCCN)NC(=O)[C@H](CCCCNC(=O)Cn2cc(C)c(=O)[nH]c2=O)NC(=O)[C@H](CCCCN)NC(=O)[C@H](CCCCNC(=O)Cn2cc(C)c(=O)[nH]c2=O)NC(=O)[C@H](CCCCN)NC(=O)[C@H](CCCCNC(=O)Cn2cc(C)c(=O)[nH]c2=O)NC(=O)[C@H](CCCCN)NC(=O)[C@@H](N)CCCCNC(=O)Cn2cc(C)c(=O)[nH]c2=O)C(=O)N[C@@H](CCCCN)C(N)=O)c(=O)[nH]c1=O (H-K(Acetyl(thymin-1-yl))KK(Acetyl(thymin-1-yl))KK(Acetyl(thymin-1-yl))KK(Acetyl(thymin-1-yl))KK(Acetyl(thymin-1-yl))KK(Acetyl(thymin-1-yl))K-NH2)
